According to patent US9681664B2, “Macrocyclic picolinamides as fungicides” (Dow Agrosciences LLC, priority 2012, dated 2017):
Read-outs that look alike come from different tables or passages of the source.

Legend:
Format in all cases: in vivo
[1] = tested on: Puccinia triticina; Synonym: Puccinia recondite f. sp. tritici; assay: Wheat brown rust (PUCCRT) disease control on wheat seedlings; details: Puccinia triticina, High volume application, 100 ppm
Procedure, shortened: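 Yuma wheat grown to first fully emerged leaf was inoculated with Puccinia triticina spore suspension either before or after fungicide treatment, held overnight at 22° C. and 100% RH in darkness, then kept at 24° C. Fungicide applied by booth sprayer to run-off (acetone/water, 110 ppm Triton X-100) or as EC by track spray.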

Uncinula necator = assay: Grape powdery mildew (UNCINE) disease control; details: Erysiphe necator, 24 h, High volume application, 1 Day Protectant, read-out: UNCINE 1 DP disease control
Description: Technical grades of materials were dissolved in acetone, which were then mixed with nine volumes of water containing 110 ppm Triton X-100. The fungicide solutions were applied onto wheat seedlings using an automated booth sprayer to run-off. All sprayed plants were allowed to air dry prior to further handling. All fungicides were evaluated using the aforementioned method for their activity vs. all target diseases. Wheat leaf blotch and brown rust activity were also evaluated using track spray applications, in which case the fungicides were formulated as EC formulations, containing 0.1% Trycol 5941 in the spray solutions. Grape seedlings (variety Carignane) were grown in soil-less Metro mix, with one plant per pot, and used in the test when approximately one month old. Plants were inoculated 24 hr after fungicide treatment by shaking spores from infected leaves over test plants. Plants were maintained in a greenhouse set at 20° C. until disease was fully developed. Fungicide formulation, application and disease assessment on the sprayed leaves followed the procedures as described in the Example A.

Cercospora beticola = assay: Leaf spot of sugar beets (CERCBE) disease control; details: 24 h, 1 Day Protectant, high volume, read-out: Disease Control CERCBE 1 DP
Description: Technical grades of materials were dissolved in acetone, which were then mixed with nine volumes of water containing 110 ppm Triton X-100. The fungicide solutions were applied onto wheat seedlings using an automated booth sprayer to run-off. All sprayed plants were allowed to air dry prior to further handling. All fungicides were evaluated using the aforementioned method for their activity vs. all target diseases. Wheat leaf blotch and brown rust activity were also evaluated using track spray applications, in which case the fungicides were formulated as EC formulations, containing 0.1% Trycol 5941 in the spray solutions. Sugar beet plants (variety HH88) were grown in soil-less Metro mix and trimmed regularly to maintain a uniform plant size prior to test. Plants were inoculated with a spore suspension 24 hr after fungicide treatments. Inoculated plants were kept in a dew chamber at 22° C. for 48 hr then incubated in a greenhouse set at 24° C. under a clear plastic hood with bottom ventilation until disease symptoms were fully expressed. Fungicide formulation, application and disease assessment on the sprayed leaves followed the procedures as described in the Example A.

Phakopsora pachyrhizi = assay: Asian soybean rust (PHAKPA) disease control; details: topical, high volume
Description: Technical grades of materials were dissolved in acetone, which were then mixed with nine volumes of water containing 0.011% Tween 20. The fungicide solutions were applied onto soybean seedlings using an automated booth sprayer to run-off. All sprayed plants were allowed to air dry prior to further handling.
Soybean plants (variety Williams 82) were grown in soil-less Metro mix, with one plant per pot. Two weeks old seedlings were used for testing. Plants were inoculated either 3 days prior to or 1 day after fungicide treatments. Plants were incubated for 24 h in a dark dew room at 22° C. and 100% RH then transferred to a growth room at 23° C. for disease to develop. Disease severity was assessed on the sprayed leaves.

Rhyncosporium secalis = assay: Barley scald (RHYNSE) disease control; details: 24 h, High volume application, 1 Day Protectant, read-out: RHYNSE 1 DP disease control
Description: Technical grades of materials were dissolved in acetone, which were then mixed with nine volumes of water containing 110 ppm Triton X-100. The fungicide solutions were applied onto wheat seedlings using an automated booth sprayer to run-off. All sprayed plants were allowed to air dry prior to further handling. All fungicides were evaluated using the aforementioned method for their activity vs. all target diseases. Wheat leaf blotch and brown rust activity were also evaluated using track spray applications, in which case the fungicides were formulated as EC formulations, containing 0.1% Trycol 5941 in the spray solutions. Barley seedlings (variety Harrington) were propagated in soil-less Metro mix, with each pot having 8 to 12 plants, and used in the test when first leaf was fully emerged. Test plants were inoculated by an aqueous spore suspension of Rhyncosporium secalis 24 hr after fungicide treatments. After inoculation the plants were kept in a dew room at 20° C. with 100% relative humidity for 48 hr. The plants were then transferred to a greenhouse set at 20° C. for disease to develop. Fungicide formulation, application and disease assessment on the sprayed leaves followed the procedures as described in the Example A.

[2] = tested on: Magnaporthe grisea; Anamorph: Pyricularia oryzae; assay: whole plant or invertebrate; details: 24 h, read-out: PYRIOR 1 DP disease control
[3] = tested on: Glomerella lagenarium; Anamorph: Colletotrichum lagenarium; assay: Cucumber anthracnose (COLLLA) disease control; details: Colletotrichum orbiculare, 24 h, 1 Day Protectant, high volume, read-out: Disease Control COLLLA 1 DP
Description: Technical grades of materials were dissolved in acetone, which were then mixed with nine volumes of water containing 110 ppm Triton X-100. The fungicide solutions were applied onto wheat seedlings using an automated booth sprayer to run-off. All sprayed plants were allowed to air dry prior to further handling. All fungicides were evaluated using the aforementioned method for their activity vs. all target diseases. Wheat leaf blotch and brown rust activity were also evaluated using track spray applications, in which case the fungicides were formulated as EC formulations, containing 0.1% Trycol 5941 in the spray solutions. Cucumber seedlings (variety Bush Pickle) were propagated in soil-less Metro mix, with each pot having one plant, and used in the test when 12 to 14 days old. Test plants were inoculated with an aqueous spore suspension of Colletotrichum lagenarium 24 hr after fungicide treatments. After inoculation the plants were kept in a dew room at 22° C. with 100% relative humidity for 48 hr to permit spores to germinate and infect the leaf. The plants were then transferred to a growth room set at 22° C. for disease to develop. Fungicide formulation, application and disease assessment on the sprayed leaves followed the procedures as described in the Example A.

[4] = 24 h, 1 Day Protectant, read-out: PUCCRT 1DP disease control
[5] = 72 h, 3 Day Curative, read-out: PUCCRT 3DC disease control
[6] = 24 h, 1 Day Protectant, read-out: Disease Control PHAKPA 1DP
[7] = 72 h, 3 Day Curative, read-out: Disease Control PHAKPA 3DC

For COc1ccnc(C(=O)N[C@H]2CCC[C@H](OC3CCCC3)[C@@H](OCCCc3ccccc3)[C@H](C)OC2=O)c1OCOC(C)=O [F165], the pest or weed control at 100 ppm [1, 4] was 80 to 100%, the pest or weed control at 100 ppm [1, 5] was 80 to 100% and the pest or weed control at 100 ppm (Uncinula necator) was 0 to 80%. It also gave a pest or weed control at 100 ppm (Cercospora beticola) of 80 to 100%, a pest or weed control at 25 ppm (Phakopsora pachyrhizi; [6]) of 80 to 100% and a pest or weed control at 25 ppm (Phakopsora pachyrhizi; [7]) of 0 to 80%. It also gave a pest or weed control at 100 ppm (Rhyncosporium secalis) of 80 to 100% and a pest or weed control at 100 ppm [2] of 80 to 100%.

Compound COc1ccnc(C(=O)N[C@H]2CCC[C@H](OCCCC(F)(F)F)[C@@H](OC3CCCC3)[C@H](C)OC2=O)c1OC(C)=O [F173] has a pest or weed control at 100 ppm [1, 4] of 80 to 100%, a pest or weed control at 100 ppm [1, 5] of 80 to 100% and a pest or weed control at 100 ppm (Uncinula necator) of 0 to 80%. It also gave a pest or weed control at 100 ppm (Cercospora beticola) of 80 to 100%, a pest or weed control at 100 ppm (Rhyncosporium secalis) of 80 to 100% and a pest or weed control at 100 ppm [2] of 80 to 100%.

COc1ccnc(C(=O)N[C@H]2CCC[C@H](OCC(C)C)[C@@H](Oc3ccccc3)[C@H](C)OC2=O)c1OCOC(C)=O [F26] gave a pest or weed control at 100 ppm [1, 4] of 80 to 100%, a pest or weed control at 100 ppm [1, 5] of 80 to 100% and a pest or weed control at 100 ppm (Uncinula necator) of 0 to 80%. The pest or weed control at 100 ppm (Cercospora beticola) was 80 to 100%, the pest or weed control at 25 ppm (Phakopsora pachyrhizi; [6]) was 80 to 100% and the pest or weed control at 25 ppm (Phakopsora pachyrhizi; [7]) was 80 to 100%. The pest or weed control at 100 ppm [3] was 80 to 100%.

Work on COc1ccnc(C(=O)N[C@H]2CCC[C@H](OCC(C)C)[C@@H](OCC(C)C)[C@H](C)OC2=O)c1OCOC(=O)C(C)C [F37] yielded a pest or weed control at 100 ppm [1, 4] of 80 to 100%, a pest or weed control at 100 ppm [1, 5] of 80 to 100% and a pest or weed control at 100 ppm (Uncinula necator) of 80 to 100%. The pest or weed control at 100 ppm (Cercospora beticola) was 80 to 100%, the pest or weed control at 25 ppm (Phakopsora pachyrhizi; [6]) was 80 to 100% and the pest or weed control at 100 ppm [2] was 80 to 100%. The pest or weed control at 100 ppm [3] was 80 to 100%.

COc1ccc(O[C@H]2CCC[C@H](NC(=O)c3nccc(OC)c3OCOC(=O)C(C)C)C(=O)O[C@@H](C)[C@@H]2OC2CCCC2)cc1 [F169] showed a pest or weed control at 100 ppm [1, 4] of 80 to 100%, a pest or weed control at 100 ppm [1, 5] of 80 to 100% and a pest or weed control at 100 ppm (Uncinula necator) of 0 to 80%. For the same compound, the pest or weed control at 100 ppm (Cercospora beticola) was 80 to 100%, the pest or weed control at 100 ppm (Rhyncosporium secalis) was 80 to 100% and the pest or weed control at 100 ppm [2] was 80 to 100%.

In the case of COc1ccnc(C(=O)N[C@H]2CCC[C@H](OCC(C)C)[C@@H](Oc3ccccc3)[C@H](C)OC2=O)c1OCOC(=O)C(C)C [F34], the pest or weed control at 100 ppm [1, 4] is reported as 80 to 100%, the pest or weed control at 100 ppm [1, 5] is reported as 80 to 100% and the pest or weed control at 100 ppm (Uncinula necator) is reported as 0 to 80%. The pest or weed control at 100 ppm (Cercospora beticola) was 80 to 100%, the pest or weed control at 25 ppm (Phakopsora pachyrhizi; [6]) was 80 to 100% and the pest or weed control at 25 ppm (Phakopsora pachyrhizi; [7]) was 80 to 100%. For the same compound, the pest or weed control at 100 ppm [2] was 80 to 100% and the pest or weed control at 100 ppm [3] was 80 to 100%.

With COc1ccnc(C(=O)N[C@H]2CCC[C@H](Oc3ccccc3)[C@@H](Oc3ccccc3)[C@H](C)OC2=O)c1OCOC(=O)C(C)C [F36] the pest or weed control at 100 ppm [1, 4] was 80 to 100%, the pest or weed control at 100 ppm [1, 5] was 80 to 100% and the pest or weed control at 100 ppm (Uncinula necator) was 0 to 80%. For the same compound, the pest or weed control at 100 ppm (Cercospora beticola) was 80 to 100%, the pest or weed control at 25 ppm (Phakopsora pachyrhizi; [6]) was 80 to 100% and the pest or weed control at 25 ppm (Phakopsora pachyrhizi; [7]) was 80 to 100%. It also gave a pest or weed control at 100 ppm [2] of 80 to 100% and a pest or weed control at 100 ppm [3] of 80 to 100%.
